Source: patent publication US20220071953A1, “Small Molecule Analogs Of The Protein E4ORF1 In The Treatment And Prevention Of Metabolic Disorders” (Texas Tech University System, priority 2019, published 2022)
“Also recorded” adds a separate entry of the source.

Columns and labels:
[1] = test system: C57BL/6J male mice on a 60% kcal high-fat diet; assay: Glucose tolerance test (GTT) in high-fat diet fed mice; type: in vivo; details: daily injection of 4 mg/kg, GTT 7 and/or 14 days post-treatment, vs DMSO control mice
Method: (§1) To determine improvement in glucose disposal in vivo, 10 wk old C57BL/6J male mice (Jax Laboratories) on a 60% kcal high-fat diet (Research diets, Inc.) since 6 weeks of age were divided into weight-matched groups. In individual experiments, mice were treated with daily injection of 4 mg/kg of respective small molecules (BN #3, BT #141, BT #143 and BT #181) or DMSO alone as control. Improvement in glycemic control was determined by glucose tolerance test (GTT) performed at baseline (prior to treatment), 7 days and/or 14 days post-treatment. Insulin-independent action of the small molecules was also measured by collecting blood during GTT and quantifying serum insulin by enzyme-linked immunosorbent assay (ELISA).

[2] = test system: 3T3-L1 pre-adipocytes, mature adipocytes and murine skeletal muscle cells; assay: In vitro screening of small molecules for cellular glucose uptake; type: cell-based; details: 20 μM/well, 24 h; for greater glucose uptake compared to control: other replications not presented; for increase in cellular glucose: tested 3 or more times in different cell types
Method: Next, over time, Applicants tested cellular glucose uptake with 41 different E4orf1 analog small molecules in 3T3-L1 pre-adipocytes, mature adipocytes and murine skeletal muscle cells. Cells were exposed to 20 μM/well of E4orf1 analogs. Glucose uptake by cells was determined 24 h later. Insulin and human adenovirus Ad36 were used as positive controls for glucose uptake. The * indicates statistical significance after Bonferroni correction for multiple comparisons.
Applicants conducted glucose uptake assays for compounds several separate times. BN #3 and BT #141 had about 70% greater glucose uptake compared to control in other replications not presented herein.

[3] = test system: C57BL/6J male mice on a 60% kcal high-fat diet; assay: Serum insulin by ELISA during GTT in high-fat diet fed mice; type: in vivo; details: daily injection of 4 mg/kg, vs DMSO control mice
Method: as §1

[4] = test system: 3T3L1 preadipocytes; assay: Glucose uptake in 3T3L1 preadipocytes treated with E4orf1 analogs; type: cell-based; details: analogs 2 μl/ml of media, 24 hr in dark, vs DMSO, repeated 3 times
Method: FIG. 3 illustrates that selected E4orf1 chemical analogs increase glucose uptake. 3T3L1 preadipocytes were treated with dimethyl sulfoxide (DMSO) or insulin or treated with analogs BT324, BT325, BT326, BT327, BT328, and BT329. The treatments were compared using one way analysis of variance (ANOVA) and post hoc Tukey's test. Groups sharing same letters are not statistically significant.
(§2) 3T3L1 preadipocytes (passage number 8 below) were used to treat with analogs. As control, cells were treated with equal volumes of DMSO. As positive control, cells were treated with 100 nM insulin. Cells at 70% confluency were treated with analogs (2 μl/ml of media) in dark for 24 hr. Post 24 hr treatment, cells were used either to determine glucose uptake or to obtain cell lysates for determining pAKT abundance by Western blot analysis.

[5] = test system: pAkt/Akt; assay: Western blot for pAkt/Akt in cell lysates of treated 3T3L1 preadipocytes; type: cell-based; details: 24 hr incubation, vs DMSO
Method: FIG. 4 illustrates that the E4orf1 chemical analogs that increase glucose uptake also increase pAkt levels—the underlying mechanism for increasing cellular glucose uptake. 3T3L1 preadipocytes were treated with DMSO or insulin or with analogs BT324, BT325, BT327, or BT329. Post 24 hr incubation in the dark, cell lysates were collected and 20 μg of protein was loaded and probed for pAkt/Akt. Band intensities were analyzed using Image J software. Groups sharing same letters are not statistically significant.
as §2

SMILES | glucose clearance / glycemic control (GTT) ([1]; 4 mg/kg) | greater glucose uptake compared to control [2] | increase in cellular glucose [2] | insulin secretion [3] | glucose uptake [4] | pAkt/Akt [5] | glucose clearance / glycemic control (GTT) ([1]; listed as BN #141, 4 mg/kg)
Cc1cc(C(C#N)Nc2ccc(B3OC(C)(C)C(C)(C)O3)cc2)no1 (stereo not shown) [BN #3] | improved glycemic control; also recorded: improved glucose disposal | about 70% | consistently significant increase in cellular glucose | lower insulin secretion | – | – | –
COC(=O)c1cc2cc(Cl)ccc2oc1=O [BT324] | – | – | – | – | significantly increased glucose uptake | significant increase in pAkt/Akt | –
O=C(O)c1cc2cc(Cl)ccc2oc1=O [BT325] | – | – | – | – | significantly increased glucose uptake | significant increase in pAkt/Akt | –
O=C(O)c1cc2cc(Cl)ccc2[nH]c1=O [BT327] | – | – | – | – | significantly increased glucose uptake | significant increase in pAkt/Akt | –
C#Cc1ccc(/C(N)=N/O)cc1 [BT329] | – | – | – | – | significantly increased glucose uptake | significant increase in pAkt/Akt | –
CC1(C)OB(c2ccc(C(C#N)Nc3ccc(O)cc3)cc2)OC1(C)C (stereo not shown) [BT #141] | improved glycemic control | about 70% | consistently significant increase in cellular glucose | – | – | – | improved glucose disposal
